Results published in patent US20090074885A1, “Reversible Hydrophobic Modification of Drugs for Improved Delivery to Cells” (Roche Madison Inc., priority 2003, published 2009).
Like-named read-outs stand apart in the source and are kept apart here.

Columns and labels:
[1] = tested on: B16 murine melanoma cells; assay: CellTiter-Glo luminescent cell viability assay; assay type: cell-based; settings: 10 min drug solution exposure, 3 h in media, 24 h culture; up to 112 μl delivery solution per well
Procedure: Cells were seeded at 1×10^4 cells/well in 100 μl of media into 96-well plates on day 0 and cultured for 24 h prior to addition of drug. […] Following 10 min of drug solution exposure, 100 μl of fresh media was added to each well and incubated for 3 h. Drug-containing media was replaced with 100 μl of fresh media and cultured for and additional 24 h.

[2] = tested on: Hepa 1-6 (mouse hepatoma); assay: WST cytotoxicity assay, Hepa 1-6; assay type: cell-based
Procedure: (§1) Antiproliferative/Cytotoxic in vitro studies on PI, RRH-PI prodrugs, melphalan, and C12PMMA-melphalan. In vitro cytotoxicity testing was conducted on Hepa 1-6 (mouse hepatoma), SK-OV-3 (human ovarian carcinoma), and MC38 (mouse colon carcinoma) cells using a tetrazolium based assay (WST, Dojindo Molecular Technologies). For the WST assay, Hepa 1-6 (2.0×10^5 cells well), SK-OV-3 (7.5×10^5 cells well), and MC38 (8.5×10^5 cells well) were seeded in 1000 μL media into 12-well plates 24 h prior to testing (starting confluency ˜50%). Following removal of media, drug/prodrug solution was added drop-wise to quadruplicate wells, using the mixing chamber. Effective drug concentrations were calculated from the amount of drug added in the total volume of OS and aqueous solution. Following 4 min of drug solution exposure, the solution was removed, and 1000 μl fresh complete media was added to each well. After the cells were incubated for 24-48 h, WST-1 (20 μl of a 5 mM solution in PBS) and N-methylphenazonium methyl sulfate (PMS, 20 μl 0.2 mM solution in PBS) were added and the cells were incubated for 1-4 h. For testing with MC38 cells, the amounts of WST-1 and PMS were doubled. Following incubation, 100 μl of sample was transferred to quadruplicate wells on a 96-well plate, and the absorbance (438 nm) values were measured on a SPECTRAmax Plus^384 microplate spectrophotometer (Molecular Devices Corporation). Data represents the mean A438 values of 16 wells with standard deviation, corrected for media contribution, and normalized against cells in media with no drug/prodrug treatment (reported as % cell viability±standard deviation).
(§2) The concentration of drug (μM) that is required for 50% inhibition in vitro is reported as the IC50. The reported values were calculated from the best fit line (Excel) for a plot of effective drug concentration against % cell viability, and include the r^2 value. The reported IC50 values for multiple RRH-PI plots are reported as IC50 (μM)±standard deviation.

[3] = tested on: MC38 (mouse colon carcinoma); assay: WST cytotoxicity assay, MC38; assay type: cell-based; settings: MC38, 4 min drug exposure, WST 48 h after
Procedure: as §1, with “For testing with MC38 cells, the amounts of WST-1 and PMS were doubled.” left out, “Data represents the mean A438 values of 16 wells with standard deviation, corrected for media contribution, and normalized against cells in media with no drug/prodrug treatment (reported as % cell viability±standard deviation).” left out

[4] = tested on: SK-OV-3 (human ovarian carcinoma); assay: WST cytotoxicity assay, SK-OV-3; assay type: cell-based
Procedure: as §1, §2

[5] = tested on: SK-OV-3 (human ovarian carcinoma) cells; assay: In vitro cellular uptake by fluorescence microscopy, SK-OV-3; assay type: cell-based; settings: fluorescein channel
Procedure: In Vitro cellular uptake of PI, RRH-PI compounds, and IV evaluated by fluorescence measurements. […] Adherent cells were plated at 2.5×10^5 cells/well on 6-well plates 24 h prior to testing. The growth media was removed from individual wells and the drug/prodrug was immediately added to the well with the mixing chamber. […] After 30 sec the drug solution was removed (aspirated) and 2 ml complete media was added to the cells. Experiments conducted with prodrug that was hydrolyzed prior to application to the cells followed a similar protocol, however the combined solution obtained after passing through the mixing chamber was collected and allowed to sit at ambient temperature for 5 min prior to application on the cells. Experiments conducted with Calcein AM (Invitrogen, 100 μl of 20 μM solution in complete media) followed a similar protocol for drug treatment (4 min treatment). Experiments conducted with SYTOX Green (Invitrogen) followed a similar protocol for drug treatment. […] Each condition was repeated in 2 or 3 wells, and the cells were immediately examined by microscopy. Fluorescent microscopy studies were conducted with a three laser LSM 510 confocal microscope, an Axiovert S100 fluorescent microscope, or an Axioplan2 fluorescent microscope (all Zeiss) equipped with filter sets for the rhodamine fluorescence channel (λex=BP 450/12, λem=LP 590 nm filter set) and the fluorescein fluorescent channel (λex=BP 546/90, λem=LP 515 nm filter set). Imaging was performed with an AxioCam digital camera (Zeiss), with AxioVision imaging software (V 4.5, Zeiss). For all images, identical camera settings and exposure times were used on comparative sample and control images. Images were processed with Photoshop (Adobe) for level and brightness using identical settings between sample and control images. For experiments conducted with IV, the cells were plated on 6-well plates with cover slips. […] Imaging was conducted on an Axioplan2 fluorescent microscope (Zeiss) and the same fields were imaged with phase contrast illumination, in the rhodamine fluorescence channel (λex=BP 450/12, λem=LP 590 nm filter set), and in the fluorescein fluorescent channel (λex=BP 546/90, λem=LP 515 nm filter set). IV was also mixed with PI and then delivered to SK-OV-3 cells, and the cells were imaged as before. In one protocol, equal amounts of IV (15.0 mM in DMSO) and PI (15.0 mM in DMSO) were combined and the resulting solution was added to cells via the mixing chamber. In a second method, PI was taken up in the ITG solution (0.748 mM) and mixed with IV (7.48 mM in DMSO) in the mixing chamber. […] The cells were imaged as before following 30 sec-4 min exposure to the drug solution.

[6] = Qualitative 90° light scattering for particles; assay type: physicochemical; settings: relative to ITG or PI in ITG
Procedure: (§3) Light Scattering analysis of prodrugs. Particle size was determined by dynamic light scattering on a Zeta Plus (Zeta Potential Analyzer, Brookhaven Instrument Corporation, λ 533 nm, 90°), and results are reported as the size of the most abundant particle (range of particle sizes, counts sec^−1). Fluorescent compounds were also analyzed for particles qualitatively, by measuring for light scattering on a Cary Eclipse Fluorescence Spectrophotometer (Varian Inc.), with λex=λem (300-800 nm, 90° detection). The presence of particles in solution results in an increase in signal detection at 90°. PI and RRH-PI prodrugs were 7.48 mM in DMSO. Melphalan and V were 50 mM in DMSO. The drug/prodrug solutions were mixed and diluted with ITG through the mixing chamber (40 μl OS and 400 μl ITG), and analyzed immediately.

[7] = Dynamic light scattering particle size; assay type: physicochemical; settings: following mixing with ITG through mixing chamber
Procedure: as §3

[8] = Analysis of prodrug lability (rate of hydrolysis) of PI derivatives by fluorescent spectroscopy; assay type: physicochemical; settings: extrapolated to pure buffer (100 mol % H2O)
Procedure: (§4) Analysis of prodrug lability. The prodrugs were tested for their rate of hydrolysis at pH 6.0, 7.2 and 8.5 using fluorescent spectroscopy. Lability studies for C12CON-PI and RRH-PI (rapidly reversible hydrophobic-PI) derivatives were conducted on a Cary Eclipse Fluorescence Spectrophotometer (Varian Inc.).
To solutions of PI and RRH-prodrugs of PI (7.48 μM in DMSO) were added various amounts of buffer (25 μL, 50 μL, and 100 μL of 20 mM Hepes buffer) at different pH. Upon cleavage of the hydrophobic modification and regeneration of PI, the fluorescence of the solution increased (λex=493 nm, λem=647 nm, excitation and emission slit width=5 nm, and emission PMT=600V) and was assayed as a function of time (20 min).
(§5) The resulting curves were normalized for intensity and fit to an exponential equation (Origin) to determine kdetermined for each solution. The kdetermined for each compound at appropriate pH were plotted against the mol % of H2O, and the best fit line was solved for kbuffer for 100 mol % H2O. These derived kbuffer values were used to determine the half-life of the prodrug in pure buffer according to the equation t1/2=1n2/k.

SK-OV-3 cells = assay: Uptake of PI mixed with hydrophobic derivative (membrane damage test), SK-OV-3; assay type: cell-based, human; settings: compared to cells treated with PI alone
Procedure: (§6) For experiments conducted with IV, the cells were plated on 6-well plates with cover slips. Following treatment as above, the cover slip was immediately removed and inverted over 1 drop of media for imaging, or the cells were incubated for 1 h prior to removal of the cover slip and imaging. Imaging was conducted on an Axioplan2 fluorescent microscope (Zeiss) and the same fields were imaged with phase contrast illumination, in the rhodamine fluorescence channel (λex=BP 450/12, λem=LP 590 nm filter set), and in the fluorescein fluorescent channel (λex=BP 546/90, λem=LP 515 nm filter set). IV was also mixed with PI and then delivered to SK-OV-3 cells, and the cells were imaged as before. In one protocol, equal amounts of IV (15.0 mM in DMSO) and PI (15.0 mM in DMSO) were combined and the resulting solution was added to cells via the mixing chamber. In a second method, PI was taken up in the ITG solution (0.748 mM) and mixed with IV (7.48 mM in DMSO) in the mixing chamber. Similarly, V (15 mM and 30 mM in DMSO) was mixed with PI and delivered to Hepa 1-6 and SK-OV-3 cells using the second method. The cells were imaged as before following 30 sec-4 min exposure to the drug solution.

[9] = Trypan blue assay for membrane disruption; assay type: cell-based
[10] = Hydrolysis of V monitored by reaction of liberated melphalan with fluorescamine; assay type: physicochemical; settings: pH 6.0; for Half-life: extrapolated to pure buffer (100 mol % H2O)
Procedure: as §4
Alternatively, to solutions of fluorescamine (857 μM in DMSO) were added various amounts of buffer (20 μL, 30 μL, 40 μL, 50 μL, and 70 μL of 100 mM MES buffer, pH 6.0) followed by melphalan or V (249 μM final concentration in DMSO). The fluorescence of the solution (λex=380 nm, λem=464 nm, excitation and emission slit width=5 nm, and emission PMT=600V) was assayed as a function of time (40 min). At each buffer concentration the reaction of fluorescamine and melphalan was more rapid than hydrolytic breakdown of V.
as §5

Hepa 1-6 = assay: Uptake of PI mixed with hydrophobic derivative (membrane damage test), Hepa 1-6; assay type: cell-based, mouse; settings: compared to PI alone
Procedure: as §6

[11] = Hepa 1-6, 4 min drug exposure, WST 48 h after, read-out: Mean IC50
[12] = SK-OV-3, 4 min drug exposure, WST 48 h after, read-out: Mean IC50

**Q.** For `CCCCCCCCCCCCCCCCCC[Si](C)(C)N.CCCCCCCCCCCCCCCCCC[Si](C)(C)N.[Cl][Pt][Cl]` [BDMODS-CP, Cl2Pt(NH2Si(CH3)2C18H37)2], which “antiproliferative/cytotoxic effect (RLU)” value [1] is on record?
**A.** Its value is “complete cytotoxic effect”.

**Q.** Which results are given for `N[C@@H](Cc1ccc(N(CCCl)CCCl)cc1)C(=O)O` [Melphalan, reference compound]?
**A.** viability at 1458 µM ([2]; Mus musculus, Hepa1-6, 48 h, read-out: cell viability at highest concentration tested, Hepa 1-6, 48 h, 1458 μM): 81%; IC50 ([2]; Mus musculus, Hepa1-6, read-out: Mean IC50): > 1460 µM; IC50 ([3]; Mus musculus, MC-38): 1180 µM; viability at 1458 µM ([4]; Homo sapiens, SK-OV-3, 48 h, read-out: cell viability at highest concentration tested, SK-OV-3, 48 h, 1458 μM): 70 ± 11%; IC50 ([4]; Homo sapiens, SK-OV-3, read-out: Mean IC50): > 1460 µM

**Q.** With `CCCCCCCCCCCC(=O)Nc1ccc2c(c1)c(-c1ccccc1)[n+](CCC[N+](C)(CC)CC)c1cc(NC(=O)CCCCCCCCCCC)ccc21.[I-].[I-]` [IV, 3,8-bis-undecylcarbanylamino 5-(3,3-diethyl-3-methylammoniumpropyl) 6-phenyl phenanthridinium diiodide] as the compound, how does the fluorescent signal localisation ([5]; after one hour incubation) read?
**A.** The fluorescent signal localisation was “more defined punctate signal”.

**Q.** And the fluorescent signal localisation ([5]; immediately following application)?
**A.** Its fluorescent signal localisation is “diffuse signal was observed along the cell membrane”.

**Q.** What about the IC50 ([2]; Hepa 1-6, 4 min drug exposure, WST 24 h after, read-out: Mean IC50) of the same compound?
**A.** Its IC50 is 585 µM.

**Q.** And the IC50 [2, 11]?
**A.** Its IC50 is 429 µM.

**Q.** What about the “increase in 90° light scattering signal intensity” value [6] of the same compound?
**A.** The value was 15 fold.

**Q.** And the “range of particle sizes” value [7]?
**A.** Its value is 28-42 nm.

**Q.** And the “size of the most abundant particle” value [7]?
**A.** Its value is 36 nm.

**Q.** And the Half-life ([8]; pH 7.2)?
**A.** Its Half-life is “non-labile”.

**Q.** What about the Half-life ([8]; pH 8.5) of the same compound?
**A.** The Half-life was “non-labile”.

**Q.** And the IC50 ([4]; SK-OV-3, 4 min drug exposure, WST 24 h after, read-out: Mean IC50)?
**A.** The IC50 was 455 µM.

**Q.** And the IC50 [4, 12]?
**A.** Its IC50 is 342 µM.

**Q.** And the “nuclear PI staining when delivered together with PI” value (“nuclear PI staining” for short) (SK-OV-3 cells)?
**A.** Its value is “no increased levels of nuclear PI staining detected”.

**Q.** Which IC50 [2, 11] does the source give for `CCCCCCCCCCCCNC(=O)CCC(=CCC(=O)O)C(=O)NC(Cc1ccc(N(CCCl)CCCl)cc1)C(=O)O` (centres unmarked) [V, 3,9-diaza, 2-[4-{bis(2-chloroethyl)amino}phenylmethyl], 5-(2-carboxylethylidine), 4,8-dioxo uncosanoic acid] here?
**A.** Its IC50 is 330 µM.

**Q.** And the generalized membrane disruption [9]?
**A.** Its generalized membrane disruption is “neither V or methyl aniline silylated with chloro(dimethyl)octadecylsilane caused generalized membrane disruption”.

**Q.** And the “range of particle sizes” value [7]?
**A.** Its value is 36-66 nm.

**Q.** What about the “size of the most abundant particle” value [7] of the same compound?
**A.** The value was 36 nm.

**Q.** What about the IC50 [3] of the same compound?
**A.** The IC50 was 304 µM.

**Q.** And the k [10]?
**A.** Its k is “(1.62 min^−1)”.

**Q.** What about the Half-life [10] of the same compound?
**A.** The Half-life was 28 s.

**Q.** And the Half-life ([10]; listed as C12PMMA-Melphalan (V))?
**A.** The Half-life was 25.7 s.

**Q.** And the “nuclear PI staining” value (Hepa 1-6)?
**A.** Its value is “no increased levels of nuclear PI staining were observed”.

**Q.** What about the IC50 [4, 12] of the same compound?
**A.** The IC50 was 384 µM.

**Q.** And the “nuclear PI staining” value (SK-OV-3 cells)?
**A.** The value was “no increased levels of nuclear PI staining were observed”.
